Tests used:
PKS12 [1] = biological target: T1, PKS12 (Mycobacterium tuberculosis, UniProt I6XD69)
PKS12 [2] = biological target: T1, PKS12; remark: listed apart in the source

T1 sequence (I6XD69 whole entry): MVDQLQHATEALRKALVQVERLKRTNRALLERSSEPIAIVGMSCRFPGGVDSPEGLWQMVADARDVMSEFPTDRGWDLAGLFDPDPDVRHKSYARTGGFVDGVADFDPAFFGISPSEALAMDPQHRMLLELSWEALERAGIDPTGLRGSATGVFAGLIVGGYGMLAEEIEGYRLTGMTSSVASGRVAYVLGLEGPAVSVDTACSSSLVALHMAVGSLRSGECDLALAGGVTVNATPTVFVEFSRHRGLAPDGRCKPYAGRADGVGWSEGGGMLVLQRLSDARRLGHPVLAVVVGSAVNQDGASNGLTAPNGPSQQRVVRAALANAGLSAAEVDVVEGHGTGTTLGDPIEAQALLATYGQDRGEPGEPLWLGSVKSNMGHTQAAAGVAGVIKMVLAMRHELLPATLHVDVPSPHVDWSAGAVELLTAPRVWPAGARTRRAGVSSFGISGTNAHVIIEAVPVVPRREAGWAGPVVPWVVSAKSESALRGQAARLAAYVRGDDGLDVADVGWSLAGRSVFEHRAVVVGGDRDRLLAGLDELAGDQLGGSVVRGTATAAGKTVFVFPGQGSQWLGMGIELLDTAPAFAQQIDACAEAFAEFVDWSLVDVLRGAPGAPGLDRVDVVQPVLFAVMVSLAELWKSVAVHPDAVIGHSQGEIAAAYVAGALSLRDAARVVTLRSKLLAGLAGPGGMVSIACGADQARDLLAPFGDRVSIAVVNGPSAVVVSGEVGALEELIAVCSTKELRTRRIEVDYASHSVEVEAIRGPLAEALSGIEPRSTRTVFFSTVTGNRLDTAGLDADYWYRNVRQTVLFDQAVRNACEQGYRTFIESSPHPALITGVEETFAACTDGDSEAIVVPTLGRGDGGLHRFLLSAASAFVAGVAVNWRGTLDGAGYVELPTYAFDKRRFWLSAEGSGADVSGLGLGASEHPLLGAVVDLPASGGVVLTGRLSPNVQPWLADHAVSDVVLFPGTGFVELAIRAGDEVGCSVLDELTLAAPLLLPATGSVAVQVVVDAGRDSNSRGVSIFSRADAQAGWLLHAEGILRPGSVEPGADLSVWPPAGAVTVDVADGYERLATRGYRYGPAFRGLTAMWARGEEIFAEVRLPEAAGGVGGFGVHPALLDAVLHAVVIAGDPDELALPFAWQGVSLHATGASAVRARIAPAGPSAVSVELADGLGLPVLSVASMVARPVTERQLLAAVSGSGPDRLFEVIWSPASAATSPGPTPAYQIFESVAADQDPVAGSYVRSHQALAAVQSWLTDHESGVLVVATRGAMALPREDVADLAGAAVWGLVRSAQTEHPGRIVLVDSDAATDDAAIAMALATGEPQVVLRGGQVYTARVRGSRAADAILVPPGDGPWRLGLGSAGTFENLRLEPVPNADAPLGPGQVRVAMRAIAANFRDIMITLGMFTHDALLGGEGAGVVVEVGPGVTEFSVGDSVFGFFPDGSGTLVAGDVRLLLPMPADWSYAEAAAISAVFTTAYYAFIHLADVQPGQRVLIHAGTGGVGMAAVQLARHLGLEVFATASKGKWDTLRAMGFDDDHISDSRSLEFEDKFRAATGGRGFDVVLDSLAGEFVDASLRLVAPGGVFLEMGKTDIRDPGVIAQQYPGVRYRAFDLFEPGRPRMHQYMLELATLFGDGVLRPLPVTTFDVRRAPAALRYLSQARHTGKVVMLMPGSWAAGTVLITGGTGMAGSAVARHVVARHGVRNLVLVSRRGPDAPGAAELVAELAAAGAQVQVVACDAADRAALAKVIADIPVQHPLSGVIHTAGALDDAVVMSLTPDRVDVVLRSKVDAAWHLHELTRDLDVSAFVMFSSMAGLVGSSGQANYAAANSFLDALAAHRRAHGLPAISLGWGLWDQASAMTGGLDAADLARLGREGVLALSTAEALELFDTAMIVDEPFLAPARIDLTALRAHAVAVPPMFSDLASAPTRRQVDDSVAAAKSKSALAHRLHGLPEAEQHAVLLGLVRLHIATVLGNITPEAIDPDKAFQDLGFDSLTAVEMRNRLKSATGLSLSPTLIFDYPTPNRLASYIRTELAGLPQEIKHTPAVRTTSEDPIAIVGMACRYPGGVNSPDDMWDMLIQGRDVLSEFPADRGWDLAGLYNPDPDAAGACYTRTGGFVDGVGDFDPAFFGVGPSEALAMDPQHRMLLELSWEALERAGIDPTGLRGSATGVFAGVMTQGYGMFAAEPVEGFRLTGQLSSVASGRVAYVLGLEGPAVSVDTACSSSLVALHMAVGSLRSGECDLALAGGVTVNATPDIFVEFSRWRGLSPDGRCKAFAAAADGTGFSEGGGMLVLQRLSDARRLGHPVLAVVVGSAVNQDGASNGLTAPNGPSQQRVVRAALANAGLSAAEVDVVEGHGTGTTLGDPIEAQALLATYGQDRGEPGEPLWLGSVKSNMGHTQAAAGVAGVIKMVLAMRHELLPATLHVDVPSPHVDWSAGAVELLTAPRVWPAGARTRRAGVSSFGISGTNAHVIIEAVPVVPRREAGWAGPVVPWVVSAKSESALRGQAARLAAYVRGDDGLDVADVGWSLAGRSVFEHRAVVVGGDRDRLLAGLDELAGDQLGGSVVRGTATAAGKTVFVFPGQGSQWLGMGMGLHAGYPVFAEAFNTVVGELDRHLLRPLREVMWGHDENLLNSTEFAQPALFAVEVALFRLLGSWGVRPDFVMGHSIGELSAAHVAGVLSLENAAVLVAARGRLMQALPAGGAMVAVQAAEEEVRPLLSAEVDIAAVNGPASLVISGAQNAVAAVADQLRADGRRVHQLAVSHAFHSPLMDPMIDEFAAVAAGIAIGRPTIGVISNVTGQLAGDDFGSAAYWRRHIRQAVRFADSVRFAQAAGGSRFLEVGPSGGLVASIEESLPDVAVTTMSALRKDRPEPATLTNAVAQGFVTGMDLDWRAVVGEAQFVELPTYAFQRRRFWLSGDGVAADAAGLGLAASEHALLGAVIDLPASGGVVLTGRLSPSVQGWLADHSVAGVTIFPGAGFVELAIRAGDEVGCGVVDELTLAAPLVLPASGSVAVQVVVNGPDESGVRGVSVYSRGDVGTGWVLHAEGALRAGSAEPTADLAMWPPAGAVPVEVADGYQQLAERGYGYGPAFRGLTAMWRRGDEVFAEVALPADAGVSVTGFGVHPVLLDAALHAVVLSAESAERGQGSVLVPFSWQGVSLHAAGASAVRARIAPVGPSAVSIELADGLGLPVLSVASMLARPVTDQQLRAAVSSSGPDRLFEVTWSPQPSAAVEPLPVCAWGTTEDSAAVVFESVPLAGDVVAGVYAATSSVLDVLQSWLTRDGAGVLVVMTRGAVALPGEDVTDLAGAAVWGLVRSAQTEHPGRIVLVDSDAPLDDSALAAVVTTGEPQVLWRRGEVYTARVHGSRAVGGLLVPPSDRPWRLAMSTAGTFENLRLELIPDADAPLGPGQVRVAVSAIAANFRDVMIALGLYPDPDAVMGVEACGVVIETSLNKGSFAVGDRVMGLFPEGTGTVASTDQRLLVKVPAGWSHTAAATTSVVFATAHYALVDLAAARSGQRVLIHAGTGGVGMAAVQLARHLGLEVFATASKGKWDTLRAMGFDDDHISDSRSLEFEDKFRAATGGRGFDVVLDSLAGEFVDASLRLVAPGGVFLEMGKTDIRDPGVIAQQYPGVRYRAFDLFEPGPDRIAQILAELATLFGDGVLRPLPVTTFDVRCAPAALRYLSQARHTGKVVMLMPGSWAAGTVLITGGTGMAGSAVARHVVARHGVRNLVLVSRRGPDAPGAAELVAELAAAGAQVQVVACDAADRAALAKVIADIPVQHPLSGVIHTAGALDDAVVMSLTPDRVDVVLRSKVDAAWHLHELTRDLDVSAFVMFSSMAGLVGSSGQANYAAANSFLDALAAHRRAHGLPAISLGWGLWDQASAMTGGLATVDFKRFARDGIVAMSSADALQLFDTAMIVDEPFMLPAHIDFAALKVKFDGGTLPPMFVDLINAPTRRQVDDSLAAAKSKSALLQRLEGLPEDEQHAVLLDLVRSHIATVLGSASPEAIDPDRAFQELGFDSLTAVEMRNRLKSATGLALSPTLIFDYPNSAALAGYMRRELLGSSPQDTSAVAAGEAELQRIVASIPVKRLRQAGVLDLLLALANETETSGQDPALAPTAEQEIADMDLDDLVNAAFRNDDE

| SMILES | 14C labelling of protein, SDS-PAGE phosphorimaging (PKS12 [1]) | inhibition at 100 μM (PKS12 [2]) |
| --- | --- | --- |
| CC(C(=O)O)C(=O)SCCNC(=O)CCNC(=O)[C@H](O)C(C)(C)COP(=O)(O)OP(=O)(O)OC[C@H]1O[C@@H](n2cnc3c(N)ncnc32)[C@H](O)[C@@H]1OP(=O)(O)O (stereo partly drawn) [methylmalonyl CoA] | SDS-PAGE gel-binding assays clearly showed that PKS12 could be radiolabeled with both of these substrates |  |
| CC(C)(COP(=O)(O)OP(=O)(O)OC[C@H]1O[C@@H](n2cnc3c(N)ncnc32)[C@H](O)[C@@H]1OP(=O)(O)O)[C@@H](O)C(=O)NCCC(=O)NCCSC(=O)CC(=O)O [malonyl CoA] | SDS-PAGE gel-binding assays clearly showed that PKS12 could be radiolabeled with both of these substrates |  |
| C/C=C/C/C=C/CCC(=O)[C@H]1O[C@H]1C(N)=O [cerulenin] |  | incubation of PKS12 protein with KS inhibitor cerulenin showed no radioactive bands |
